≈ marks a conversion by molar mass, not a printed value.

Consider 7 molecules from publication PMC8247886, “Getting a Grip on the Undrugged: Targeting β‐Catenin with Fragment‐Based Methods” (Chemmedchem, 2021).

The target of data set [1] is T1, β-catenin141–305 (Homo sapiens, UniProt P35222).
T1 construct: Amino acids 141-305 of uniprot ID: P35222; GST (cleaved yes); made in house; host or cells: E. coli BL21 (DE3)
T1 sequence (P35222 141-305): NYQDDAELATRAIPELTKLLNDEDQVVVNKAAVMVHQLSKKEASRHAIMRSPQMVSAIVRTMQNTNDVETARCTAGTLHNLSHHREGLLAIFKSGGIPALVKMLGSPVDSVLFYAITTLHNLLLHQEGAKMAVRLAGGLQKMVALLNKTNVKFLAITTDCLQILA
In words: Surface Plasmon Resonance (SPR) Kd determination. Format: binding. The following applies: mean of three independent experiments ± SD; 1:1 steady-state fit. The method, then:
Surface Plasmon Resonance (SPR)
A Biacore T200 instrument was used for SPR analysis, β-catenin141-305 was pre-diluted to a concentration of 0.1 mg/mL with 10 mM sodium acetate buffer, pH 5.0 and immobilized at a density of 6000 –7000 response units on flow cell 2 of a Biacore CM5 chip. Carbonic anhydraseII served as a reference protein on flow cell 3 and flow cell 1 was kept blank and used as the reference surface. A mixture of 20 mM Tris, pH 7.5, 150 mM NaCl, 0.5 mM TCEP, 0.005% Tween20, 2 % dimethyl sulfoxide was used as assay buffer. After pre -equilibration of the chip with 10 blank injections, the Kd measurements were performed by injecting a concentration series of analyte (9 concentrations, 1:1 dilutions). BCL9 347-392 served as a positive control. K d values were determined by global fitting of the steady-state response for each of the 9 concentrations to a 1:1 interaction model using the Biacore T200 evaluation software. Each compound was injected three times and […]
average Kd values were calculated from the repeats. The reported data are the mean values of three independent experiments ± standard deviations. […]
Glutamax Supplement (Thermo Fisher Scientific, 35050061) with 10% FCS (GE Healthcare, SH30071.03). Transfections were performed with Lipofectamine LTX Reagent (Thermo Fisher, 15338100) according the manufacturer’s instructions.

A short description of data set [2]: Solubility in NMR buffer at pH 7.5 by quantitative NMR (maleic acid external standard). In kind it is physicochemical. The following applies: NMR buffer (Tris/NaCl with 2% DMSO-d6), aqueous buffer, kinetic from dmso stock; NMR buffer pH 7.5; intended concentration 500 or 2000 μM; read-out: Solub. pH 7.5. The protocol: buffer (Tris 25 mM, pH 7.5, NaCl 150 mM) containing 2% DMSO-d6. […]
Solubility of compounds was determined in NMR buffer at pH 7.5 (see above) by integrating the
signal of 250 µM maleic acid as an external standard relative to the integrals of the ligands. If the
intended concentrations of 500 µM respective 2000 µM were reached the value is reported as >
500 µM or > 2000 µM. […]

Data set [3] deals with T1, β-catenin141–305. The data set is described as follows: 2D 15N NMR (TROSY/HSQC/HMQC) detected binding and Kd titration. The protocol:
The construct for expression of β-catenin141-305 (Amino acids 141-305 of uniprot ID: P35222) is based on the previously reported R4 construct1. The plasmid was used to transform E. coli, strain BL21 (DE3) cells (Invitrogen). For protein expression, an overnight culture in LB-medium supplemented ampicillin (100 µg/mL) at 37 °C was prepared and diluted the next day with fresh 2xYT-medium. At OD600 of 0.8 the culture was cooled down to 18 °C and after induction with 0.5 mM IPTG incubated for 20 h. Cell pellets obtained by centrifugation at 5000 rpm were stored at - 20 °C. Cells were solubilized in buffer A (2X Dulbecco’s PBS; 500 mM NaCl; 10 % Glycerol; 0.5 mM TCEP; cOmplete™ Protease Inhibitor Cocktail; pH 7.4) and disrupted by sonication (Sonopuls, Bandelin) on ice. After 30 min the sonicated lysate was clarified by centrifugation (50 min, 13500 rpm, 4 °C). The supernatant was mixed with 20 mL Glutathione Sepharose® 4B resin (GE Healthcare) slurry, washed in lysis buffer, and steered for 3 hours on ice. The beads were spun down, loaded into a XK16 column cartridge and washed with lysis buffer until baseline. The protein was eluted with buffer B (2X Dulbecco’s PBS; 500 mM NaCl; 10 % Glycerol; 0.5 mM TCEP;; pH 7.4) + 25 mM L-Glutathione reduced. After cleavage with 2000 units Human Alpha Thrombin (Enzyme Research Laboratories) at room temperature overnight, the protein was collected in the flow-through fraction of a second GST run (GSTrap HP 5 mL column; GE Healthcare) using buffer B. The flow-through was concentrated by centrifugation using an Amicon© Ultra 15 mL Centrifugal Filter (Merck Millipore) and loaded onto a HiLoad Superdex S75 column (GE Healthcare) equilibrated with 50 mM Tris; 200 mM NaCl; 3 mM DTT; pH 8.
Fractions were analyzed by SDS-PAGE and fractions containing the desired protein were pooled and concentrated with an Amicon© Ultra 15 mL Centrifugal Filter (Merck Millipore). […]
For confirmation of hits obtained from STD-NMR by 2D 15N TROSY NMR4 a Bruker Avance III 600 MHz instrument with a 5 mm cryo-TCI probe and z-gradient was used. The experimental set up (automated sample preparation and transfer into the magnet by a Tecan Freedom Evo pipetting robot and a Bruker Sample Rail system, respectively) was identical. Each sample contained 25 uM 15N labeled β-catenin141-305 25 mM sodium phosphate, 150 mM sodium chloride, 100 mM sodium nitrate, 0.5mM TCEP pH 6.8 in H2O at 25 °C and 8% (v/v) D2O. The protein was incubated with 500 uM fragment in a 2.5 mm NMR tube at 25 °C and a d6DMSO concentration of 1%. Spectra were recorded with 48 transients and 64 data points in the indirect dimension. Manual comparison of the spectrum in the presence of the to be tested fragment with the DMSO reference spectrum reveal either line broadening or chemical shift perturbation of cross peaks. Both effects are indicative for compound binding. All processing and analysis was done with the Topspin 2.1 software (Bruker BioSpin). Further spectral comparisons were performed with the FELIX software package (Felix NMR Inc.) to combine manual with automated analysis5. […]
700MHz spectrometer equipped with a cryogenically cooled 5mm TCI probe. […]
The
WaterLOGSY pulse sequence was used as described before7. Selective water inversion was achieved with a double excitation sculpting element employing water selective Gaussian refocusing pulses (inversion bandwidth of 0.5 ppm, pulse length of 7.5 ms). The number of scans was set to 2048. Sample concentrations were 0.5 mM ligand and 0.25–10 µM β-catenin135-663 in […]

The target in data set [4] is T1, β-catenin141–305. In words: Microscale Thermophoresis (MST) screening and Kd determination. In kind it is binding. The method, then:
buffer (Tris 25 mM, pH 7.5, NaCl 150 mM) containing 2% DMSO-d6. A stock solution of β-catenin135-663 (12.5 µM) was dialyzed before into Tris 25 mM pH 7.6 NaCl 150 mM and centrifuged at 4° C at 15000 rpm for 20 minutes. Intensity ratios Ilogsy/I1D are derived from scaling of the 1D intensity to the corresponding LOGSY intensity. STD GEMs were acquired with 1.5 µM […]
2.0; and 3.0 seconds for the saturation time build up curves to determine the initial rate constants2.
STD experiments were acquired with on and off resonance saturation at +0.1ppm and -40ppm respectively with 1048 scans each.
Solubility of compounds was determined in NMR buffer at pH 7.5 (see above) by integrating the signal of 250 µM maleic acid as an external standard relative to the integrals of the ligands. If the intended concentrations of 500 µM respective 2000 µM were reached the value is reported as > 500 µM or > 2000 µM. Compound 3 only reached a concentration of 1000 µM according to the QNMR experiment even though 2000 µM was intended, it’s solubility is therefore reported as […]
Microscale Thermophoresis.
Fluorescence labeling of β-catenin141-305 with the NT647 dye was achieved using the Monolith NT.115 Protein Labeling Kit RED-NHS according to the manufacturer’s protocol (NanoTemper Technologies, Munich, Germany). The BCL9 peptide was used as positive control for assay development to achieve a reliably detectable change in the thermophoretic mobility ( ΔFnorm). […]
Final assay conditions were 50 nM NT647 labeled β-catenin141-305 in PBS pH 6.8 supplemented with 100 mM NaNO3, 0.5 mM TCEP and 0.05% Tween-20 at 25° C. Fragment screening detected […]
by MST was carried out as previously described8,9. […] Manual inspection of all MST traces was used to reject non-standard traces stemming from protein aggregation, bleaching, or fluorescence quenching. ΔFnorm values (ΔFnorm=Fhot/Fcold) were calculated and the mean values of the duplicates were compared to the mean values of the DMSO negative control. […] Protein integrity over the entire FBS was monitored by the BCL9 peptide positive control. […]

The next data set deals with β-catenin. More on the design: method as in PMID 11237626. The following applies: read-out: binding affinity to β-catenin; cited from earlier work.
Where [5] appears, read: 15N NMR titration, single titration, mean of curves of selected cross peaks ± SD, read-out: HSQC Kd.

Consider `CN1C[C@H](c2ccccc2)Oc2ccccc2C1=O` [Compound 5], for which the Kd at β-catenin141–305 [1] and on β-catenin141–305 [3] (setting [5]) was above 10000 µM throughout. Besides, in data set [2], the solubility was above 2000 µM.

As for `CC1SCC(=O)Nc2cc(Cl)ccc21` (stereo not shown) [Compound 2], the solubility in data set [2] is above 500 µM. In addition, on β-catenin141–305 [4] (50 nM labeled β-catenin141–305, single titration), the Kd is 820 ± 320 µM. In addition, the “MST binding signal ΔΔF nom” value at β-catenin141–305 [4] (500 μM compound, 1 % DMSO, standard deviation with DMSO 1.8‰) is reported as 7.5 ‰.

For `CN1C[C@@H](c2cccc(C#N)c2)Oc2ccccc2C1=O` [Compound 6], the Kd was determined as 1390 ± 46 µM on β-catenin141–305 [1]; 915 ± 303 µM at β-catenin141–305 [3] (setting [5]); 1010 µM at β-catenin141–305 [3] (titration curve of single cross peak D207, read-out: NMR Kd, cross peak D207); 575 µM at β-catenin141–305 [3] (titration curve of single cross peak G245, read-out: NMR Kd, cross peak G245); 1160 µM on β-catenin141–305 [3] (titration curve of single cross peak V208, read-out: NMR Kd, cross peak V208). Also, the solubility in data set [2] was above 2000 µM.

On to `CN1CC(c2ccccc2)Nc2ccccc2C1=O` (stereo not shown) [Compound 3], for which the solubility in data set [2] came to 1000 µM (≈ 252 µg/mL). Also, the Kd on β-catenin141–305 [3] (setting [5]) turned out to be 1100 ± 255 µM.

For the molecule `CN1C[C@H](c2cccc(C#N)c2)Oc2ccccc2C1=O` [Compound 7], the Kd on β-catenin141–305 [1] and at β-catenin141–305 [3] (setting [5]) was above 10000 µM throughout. For the same molecule, the solubility in data set [2] was above 2000 µM. For the same molecule, the “chemical shift perturbations (CSPs) in 2D 15N NMR” value at β-catenin141–305 [3] (500 μM compound) was “did not show any CSPs”.

For the molecule “TCF4: transcription factor, natural binding partner of β-catenin”, on β-catenin, the Kd is around 0.02 µM.

For the molecule `CN1C[C@@H](c2ccccc2)Oc2ccccc2C1=O` [Compound 4], the Kd is above 10000 µM at β-catenin141–305 [1] and 2260 ± 1260 µM on β-catenin141–305 [3] (setting [5]). In addition, the solubility in data set [2] was above 2000 µM.
